As usually defined, the IC50 is the concentration at which inhibition is half-maximal.

We go through three compounds from publication PMC11813358 (Journal of Microbiology and Biotechnology, 2024).

What all share (format): cell-based
The target of assay [1] is T1, Human 5-hydroxytryptamine receptor 3A subtype (wild-type 5-HT3A receptor) (Homo sapiens, UniProt P46098).
T1 construct: host or cells: Xenopus laevis oocytes injected with cRNA
T1 sequence (P46098 24-478): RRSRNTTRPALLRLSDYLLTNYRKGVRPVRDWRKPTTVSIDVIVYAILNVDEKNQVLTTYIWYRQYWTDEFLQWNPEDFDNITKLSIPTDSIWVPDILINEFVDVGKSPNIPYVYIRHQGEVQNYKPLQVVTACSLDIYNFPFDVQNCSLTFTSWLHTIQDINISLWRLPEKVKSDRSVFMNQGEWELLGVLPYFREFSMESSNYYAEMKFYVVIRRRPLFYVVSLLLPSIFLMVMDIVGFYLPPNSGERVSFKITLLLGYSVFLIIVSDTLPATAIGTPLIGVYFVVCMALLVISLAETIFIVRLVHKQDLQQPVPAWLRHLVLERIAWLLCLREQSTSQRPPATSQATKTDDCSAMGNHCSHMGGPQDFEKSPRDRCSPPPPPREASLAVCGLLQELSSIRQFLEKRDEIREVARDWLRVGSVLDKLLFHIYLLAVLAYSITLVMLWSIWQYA
Put plainly: Two-electrode voltage clamp of 5-HT-induced inward current (I5-HT) in Xenopus oocytes expressing wild-type 5-HT3A receptor. The following applies: for Imax of 5-HT concentration-response: normalized to maximum 5-HT current. As for the experimental part:
(§1) The experimental procedure follows the approach outlined in the previous study, but is summarized briefly as follows. The plasmid containing the cDNAs for the 5-HT3A receptor was digested with Xho I restriction enzymes to linearize the cDNAs, which were then transcribed into cRNA using the Ambion mMESSAGE mMACHINE transcription kit with T7 RNA polymerase (Thermo Fisher Scientific Inc., USA). After transcription, the cRNA was dissolved in nuclease-free water, and its size and concentration were assessed via electrophoresis and spectrophotometry (DeNovix Inc., USA). The cRNA was aliquoted to a concentration of 1 μg/μl for storage at -80°C. Specific mutations were introduced into the 5-HT3A receptor using the QuickChange site-directed mutagenesis kit (Agilent Technologies Inc., USA) and PCR. The correctness of the mutations was verified by sequencing the final mutated DNA (CosmoGenetech Co., Republic of Korea).
(§2) The study utilized female Xenopus laevis frogs that were kept according to institutional protocols (CNU IACUC-YB-2016-07, July 2016), requiring a stable temperature of around 20°C and a 12-h light-dark cycle. Frog care adhered to standards from the Korean Xenopus Resource Center for Research (KXRCR000001). Anesthesia was induced by placing the frogs on ice, after which a small abdominal incision was made to extract oocytes, which were isolated using OR2 buffer (containing 82.5 mM NaCl, 2 mM KCl, 1 mM MgCl2, and 5 mM HEPES, pH 7.5) with collagenase. After rinsing with ND96 buffer (which includes 96 mM NaCl, 2 mM KCl, 1 mM MgCl2, 1.8 mM CaCl2, and 5 mM HEPES, pH 7.5), stage V-VI oocytes were selected and incubated at 18°C with ND96 incubation buffer containing sodium pyruvate and gentamicin for 2 to 3 days. Finally, 40 ng of 5HT3A cRNA was injected into each oocyte using a Nanoject automatic oocyte injector.
(§3) Two to three days post-RNA injection, the expression of the 5-HT3A protein in the oocytes was verified using a two-electrode oocyte clamp (OC-725C, Warner Instruments, LLC, USA). An agar bridge facilitated electrical connections, while ND96 buffer flowed continuously into the net chamber at 2 ml/min. Two glass microelectrodes filled with 3 M KCl (0.2 MΩ resistance) accessed the oocytes. To analyze the current-voltage relationship, voltages from −80 to +50 mV were applied, maintaining a holding potential of −80 mV. Current data were collected with a Digidata 1550 series device and analyzed using pCLAMP 10 software (Molecular Devices LLC, USA).
(§4) The Hill equation was used for graph fitting in OriginPro 7.0, as detailed below:
(§5) y = Vmin + (Vmax − Vmin) * [x]^n/([IC50]^n + [x]^n)
In this formula, Vmax and Vmin represent the highest and lowest current values, respectively. […] The variable x signifies the concentration of these compounds, while n corresponds to the Hill coefficient.
In general terms: In two-electrode clamp one electrode senses voltage and the other passes current.

In assay [2] the target is T2, V264A mutant 5-HT3A receptor (Homo sapiens, UniProt P46098, V286A).
T2 construct: expressed in transfected cells; host or cells: Xenopus laevis oocytes injected with cRNA
T2 sequence (P46098 24-478 V286A): T1 sequence (P46098 24-478) with V263A
Put plainly: Two-electrode voltage clamp of I5-HT in oocytes expressing V264A mutant 5-HT3A receptor. The following applies: 100 μM 5-HT. As for the experimental part:
as §1
as §2, with “Finally, 40 ng of 5HT3A cRNA was injected into each oocyte using a Nanoject automatic oocyte injector.” left out
(§6) Two to three days post-RNA injection, the expression of the 5-HT3A protein in the oocytes was verified using a two-electrode oocyte clamp (OC-725C, Warner Instruments, LLC, USA). […] Current data were collected with a Digidata 1550 series device and analyzed using pCLAMP 10 software (Molecular Devices LLC, USA). […]

The target of assay [3] is T3, L260A mutant 5-HT3A receptor (Homo sapiens, UniProt P46098, L282A).
T3 construct: expressed in transfected cells; host or cells: Xenopus laevis oocytes injected with cRNA
T3 sequence (P46098 24-478 L282A): T1 sequence (P46098 24-478) with L259A
Put plainly: Two-electrode voltage clamp of I5-HT in oocytes expressing L260A mutant 5-HT3A receptor. Conditions: 100 μM 5-HT. As for the experimental part: as §1
as §2, with “Finally, 40 ng of 5HT3A cRNA was injected into each oocyte using a Nanoject automatic oocyte injector.” left out
as §6

Assay [4] addresses T4, double mutant (L260A + V264A) 5-HT3A receptor (Homo sapiens, UniProt P46098, L282A/V286A).
T4 construct: expressed in transfected cells; host or cells: Xenopus laevis oocytes injected with cRNA
T4 sequence (P46098 24-478 L282A/V286A): T1 sequence (P46098 24-478) with L259A, V263A
Briefly: Two-electrode voltage clamp of I5-HT in oocytes expressing double mutant (L260A/V264A) 5-HT3A receptor. The following applies: for Inhibitory effect of MDL 72222 on double mutant: 0.5 μM MDL 72222. As for the experimental part:
as §1, §2, §3, §4, §5
In this formula, Vmax and Vmin represent the highest and lowest current values, respectively. […]

[5] abbreviates: −80 mV, unit not printed in Table 3, taken.
Where [6] appears, read: 5-HT + 3 μM nicergoline, −80 mV.
The mark [7] stands for this setting: 5-HT + 30 μM nicergoline, −80 mV.
[8] abbreviates: wild type, co-treatment with 100 μM 5-HT, −80 mV.

Each structure is given as a SMILES string. Substitutions are numbered along the chain they refer to. “And” between values parts separate entries of the source, which are not always exact repeats. Equal entries are not always repeated. “Also recorded” adds a separate entry of the source.

As for `NCCc1c[nH]c2ccc(O)cc12` [serotonin, 5-hydroxytryptamine], in assay [1] (Control, 5-HT alone, −80 mV), the “Imax of 5-HT concentration-response” value is recorded as 101.5 ± 4.6 and the “nH of 5-HT concentration-response” value came to 1.2 ± 0.1.

`CO[C@]12C[C@@H](COC(=O)c3cncc(Br)c3)CN(C)[C@@H]1Cc1cn(C)c3cccc2c13` [nicergoline]: the results for the nH in assay [2] and in assay [3] were 0.8 ± 0.2 and 1.2 ± 0.3, respectively. Besides, the “Maximum inhibition of I5-HT” value was 24% and 24.1 ± 0.8% in assay [2] (−80 mV); 91.1 ± 3.4% in assay [1] (setting [8]); “approximately 91%” in assay [1] (wild type, co-treatment with 100 μM 5-HT, −80 mV, listed as Nicergoline); 51% and 51.9 ± 2.9% in assay [3] (−80 mV); 2.7 ± 1.3% in assay [4] (L260A + V264A double mutant, 100 μM 5-HT, −80 mV). Also, the 50% inhibitory concentration (IC50) in assay [2] (setting [5]) was found to be 54.7 ± 5 µM; in assay [1] (wild type, co-treatment with 100 μM 5-HT, holding potential −80 mV) it was 7.7 ± 0.9 µM; in assay [3] (setting [5]), 57.4 ± 5.6 µM. Also, the “5-HT current when 5-HT applied immediately following nicergoline, % of the initial (baseline) current” value in assay [1] (30 μM nicergoline applied alone, then 100 μM 5-HT at 0 sec washout) amounted to 56.2 ± 10.9%. Besides, the results for the “Imax of 5-HT concentration-response” value in assay [1] (setting [6]) and in assay [1] (setting [7]) were 70.6 ± 2.9 and 45.8 ± 8.6, respectively. For the same compound, the entries for the “nH of 5-HT concentration-response” value in assay [1] (setting [6]) and in assay [1] (setting [7]) were 1.3 ± 0.4 and 1.2 ± 0.3, respectively. In addition, the “Mode of antagonism versus 5-HT” value in assay [1] (5-HT concentration-response in presence of 3 and 30 μM nicergoline) is reported as “non-competitive”. In addition, in assay [1] (setting [8]), the “Hill coefficient (nH) of inhibition” value is 1.4 ± 0.2. In assay [4] (100 μM nicergoline, double mutant (L260A/V264A)), the “Inhibitory effect of nicergoline on double mutant” value is given as “absent; also recorded: abolished”.

Regarding `CN1[C@@H]2CC[C@H]1C[C@@H](OC(=O)c1cc(Cl)cc(Cl)c1)C2` [MDL 72222], the “Inhibitory effect of MDL 72222 on double mutant” value in assay [4] (double mutant (L260A/V264A)) is given as “strongly inhibited”; in assay [4] (double mutant (L260A/V264A), listed as MDL72222), “remained unaffected”.
